PubChem BioAssay AID248 (DTP/NCI, 2004)
“And” between values parts separate entries of the source, which are not always exact repeats. Equal values may be shown once. Inconclusive results and toxic doses are left out. No stated cut-off is given here; in the data, active means T/C of 150% or more; inactive means T/C below 125%.

System: L1210 leukemia ip in BDF1 mice, survival T/C
Test: NCI In Vivo Anticancer Drug Screen. Data for tumor model L1210 Leukemia (intraperitoneal) in B6D2F1 (BDF1) mice
Settings: endpoint: mean survival time, higher = longer survival
Summary of the method: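 Each compound was tested against a transplantable tumor grown in mice. The endpoint was survival, with treated animals benchmarked against vehicle controls as a simple ratio.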

Measured: T/C

CC(c1ccccc1)n1ccnc1CC#N (stereo unspecified)
inactive: dose: 12.5 mg/kg/injection, schedule: Q01DX009 (ip), vehicle: saline 109 % of control and 88 % of control | dose: 12.5 mg/kg/injection, schedule: Q04DX002 (ip), vehicle: saline 91 % of control | dose: 25.0 mg/kg/injection, schedule: Q01DX001 (ip), vehicle: saline 100 % of control | dose: 25.0 mg/kg/injection, schedule: Q01DX009 (ip), vehicle: saline 107 % of control and 114 % of control | dose: 25.0 mg/kg/injection, schedule: Q04DX002 (ip), vehicle: saline 101 % of control and 105 % of control and 109 % of control | dose: 25.0 mg/kg/injection, schedule: Q04DX003 (ip), vehicle: saline 88 % of control | dose: 50.0 mg/kg/injection, schedule: Q01DX001 (ip), vehicle: saline 101 % of control | dose: 50.0 mg/kg/injection, schedule: Q01DX009 (ip), vehicle: saline 97 % of control and 98 % of control | dose: 50.0 mg/kg/injection, schedule: Q04DX002 (ip), vehicle: saline 95 % of control and 96 % of control and 102 % of control | dose: 50.0 mg/kg/injection, schedule: Q04DX003 (ip), vehicle: saline 93 % of control

CCCCCCCCCN(C)C(C)=O
inactive: dose: 75.0 mg/kg/injection, schedule: Q01DX001 (ip), vehicle: carboxymethylcellulose (CMC) 94 % of control | dose: 150.0 mg/kg/injection, schedule: Q01DX001 (ip), vehicle: carboxymethylcellulose (CMC) 91 % of control | dose: 300.0 mg/kg/injection, schedule: Q01DX001 (ip), vehicle: carboxymethylcellulose (CMC) 96 % of control

CCOC(=O)CNC(=O)OCCSc1ccc(C)cc1
inactive: dose: 100.0 mg/kg/injection, schedule: Q01DX009 (ip), vehicle: saline with Tween-80 97 % of control | dose: 200.0 mg/kg/injection, schedule: Q01DX009 (ip), vehicle: saline with Tween-80 93 % of control

c1cc2cc3c(cc2cc1CC1=NCCc2cc4c(cc21)OCO4)OCO3
inactive: dose: 100.0 mg/kg/injection, schedule: Q04DX003 (ip), vehicle: other 94 % of control | dose: 200.0 mg/kg/injection, schedule: Q01DX009 (ip), vehicle: other 102 % of control | dose: 200.0 mg/kg/injection, schedule: Q04DX003 (ip), vehicle: other 108 % of control | dose: 400.0 mg/kg/injection, schedule: Q01DX009 (ip), vehicle: other 94 % of control | dose: 400.0 mg/kg/injection, schedule: Q04DX003 (ip), vehicle: other 105 % of control

CCCCCCCC(=O)N(CCO)CCO
inactive: dose: 100.0 mg/kg/injection, schedule: Q04DX002 (ip), vehicle: other 96 % of control | dose: 200.0 mg/kg/injection, schedule: Q04DX002 (ip), vehicle: other 101 % of control | dose: 400.0 mg/kg/injection, schedule: Q04DX002 (ip), vehicle: other 96 % of control

NC(=Nc1ccccc1)c1ccc(C(N)=Nc2ccccc2)cc1
inactive: dose: 15.0 mg/kg/injection, schedule: Q01DX Z (ip), vehicle: carboxymethylcellulose (CMC) 104 % of control | dose: 30.0 mg/kg/injection, schedule: Q01DX Z (ip), vehicle: carboxymethylcellulose (CMC) 98 % of control | dose: 60.0 mg/kg/injection, schedule: Q01DX Z (ip), vehicle: carboxymethylcellulose (CMC) 86 % of control
